Laboratory results published in ChEMBL document CHEMBL5223118, “Magnet for the Needle in Haystack: "Crystal Structure First" Fragment Hits Unlock Active Chemical Matter Using Targeted Exploration of Vast Chemical Spaces” (J Med Chem, 2022).

What follows are molecules tested against cAMP-dependent protein kinase (PKA) (Homo sapiens, UniProt P22694+P17612+P22612) (assay: Inhibition of PKA (unknown origin)).
Type: protein assay

Row | Ki [µM] | Structure (SMILES)
1 | 20000 | Cc1cc(C(=O)Nc2ccncc2)c(C)o1
2 | 5000 | N#Cc1c(N2CCCC2)n[nH]c1N
3 | 85 | N#Cc1c(N)ccc(/C=C2/CCCNC2)c1Cl
4 | 354.3 | COC1(CNC(=O)N2CCN(c3ccncc3C)CC2)CCCS(=O)(=O)C1 (stereo unspecified)
5 | 0.74 | N[C@H]1CCN(Cc2cccc(-c3ccc4c(O)nccc4c3)c2)C1
6 | 6379 | N#Cc1c(N)ccnc1C=C1CCNCC1
7 | 2101 | N#Cc1cc(-c2cccc(C3CNCCO3)c2)ccc1N (stereo unspecified)
8 | 5000 | NCCC1CN(C(=O)c2ccc(C(N)=O)cc2)c2ccccc21 (stereo unspecified)
9 | 955 | N#Cc1cc(-c2cccc(C3COCCN3)c2)ccc1N (stereo unspecified)
10 | 139.3 | COCC1CN=C(N2CCN(c3ccncc3Cl)CC2)N1.I (stereo unspecified)
11 | 4743 | CC1(CS(=O)(=O)N2CCc3c(sc(N)c3C#N)C2)CC1(F)F (stereo unspecified)
12 | 390.2 | N#Cc1cc(-c2cccc(C3(CN)CCOCC3)c2)ccc1N
13 | 588 | COc1cc(NCCNc2ccnc(N)c2C#N)cc(OC)c1
14 | 174.4 | CN(C)Cc1ccc(F)c(-c2ccc3c(C#N)c(N)[nH]c3c2)c1
15 | 3 | N[C@@H]1CCN(Cc2cccc(-c3ccc4c(O)nccc4c3)c2)C1
16 | 154.7 | O=c1[nH]ccc2cc(-c3cccc(Cn4cccn4)c3)ccc12
17 | 1423 | CCn1cc(-c2csc3c(=O)[nH]ccc23)cn1
18 | 10000 | NC1C=C(C(F)(F)F)C=NC1=O (stereo unspecified)
19 | 6219 | COCC1CCC(NC(=O)c2ccc3c(c2)CCNC3=O)CC1 (stereo unspecified)
20 | 540 | N#Cc1cc(-c2cccc(CC(N)CC3CC3)c2)ccc1N (stereo unspecified)
21 | 0.744 | NC1CCN(Cc2cccc(-c3ccc4c(O)nccc4c3)c2)C1 (racemic)
